This note sets out measurements from PubChem BioAssay AID2821 (Broad Institute, 2010).

Usually IC50 stands for the concentration at which inhibition is half-maximal.

In the assay the target is Serine/threonine-protein kinase 33 (Homo sapiens) (UniProt Q9BYT3). Kind of assay: inhibition of STK33 phosphorylation of MBP – biochemical, luminescence, cell-free, retest, dose response (AID 2821). Conditions: purified STK33, MBP substrate, ADP-Glo luminescence. For orientation: ADP-Glo first removes unused ATP, then detects ADP through luciferase.

The source made the active and inactive calls.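 How the source made its calls: active means IC50 no more than a set number of log units above the top dose tested; inconclusive means flat fit with 30 to 70% inhibition, or a poor fit; inactive means IC50 beyond that set limit.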

Chain of Serine/threonine-protein kinase 33 (Homo sapiens) (Q9BYT3 whole entry, looked up): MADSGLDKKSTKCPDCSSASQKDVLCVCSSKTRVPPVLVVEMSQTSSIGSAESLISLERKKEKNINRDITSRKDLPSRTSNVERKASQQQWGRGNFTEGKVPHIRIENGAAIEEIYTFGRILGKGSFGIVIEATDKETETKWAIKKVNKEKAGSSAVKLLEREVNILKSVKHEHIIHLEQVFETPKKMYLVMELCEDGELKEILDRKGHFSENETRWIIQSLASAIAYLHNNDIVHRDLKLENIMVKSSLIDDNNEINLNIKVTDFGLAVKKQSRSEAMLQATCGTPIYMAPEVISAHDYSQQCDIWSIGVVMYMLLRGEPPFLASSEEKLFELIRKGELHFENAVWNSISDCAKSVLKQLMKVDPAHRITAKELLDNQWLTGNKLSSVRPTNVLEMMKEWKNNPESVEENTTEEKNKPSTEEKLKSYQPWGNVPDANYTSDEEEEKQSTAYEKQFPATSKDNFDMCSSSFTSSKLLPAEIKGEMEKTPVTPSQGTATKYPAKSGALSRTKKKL

As to `CCCn1c2ccc(/C(C)=N\O)cc2c2cc(/C(C)=N/O)ccc21`, the 50% inhibitory concentration (IC50) is 2.48 µM.

On to `COc1ccc(N=Cc2c(O)[nH]c3ccccc23)cc1OC`, for which the IC50 was 5.22 µM.

`NS(=O)(=O)c1ccc2c(c1)C(=NO)c1cc(S(N)(=O)=O)ccc1-2`: the IC50 was 4.91 µM.

For the molecule `Oc1ccc(/C=C/c2ccnc3ccccc23)cc1`, the concentration for half-maximal inhibition (IC50) is 11.5 µM.

`COc1cc(N=Cc2c(O)[nH]c3ccccc23)cc(OC)c1OC`: the IC50 was 4.93 µM.

On to `O=c1c(/C=N/O)c(Nc2ccccc2)nc2ccccn12`, for which the half-maximal inhibitory concentration (IC50) is 6.22 µM.

Consider `CCn1c2ccc(/C(C)=N\O)cc2c2cc(/C(C)=N\O)ccc21`, for which the IC50 was > 12 µM (inactive).

With `COC(=O)c1cccc2c1-c1ccccc1/C2=N/O`, the concentration for half-maximal inhibition (IC50) was 11.8 µM.

As for `Oc1ccc(/C=N/Nc2ccnc3cc(Cl)ccc23)cc1O`, the IC50 was 3.05 µM.

Turning to `N#C/C(=C(/O)c1ccco1)c1nc2ccccc2[nH]1`, the IC50 was 8.49 µM.

Turning to `Oc1[nH]c2ccccc2c1C=Nc1ccc2c(c1)OCO2`, the IC50 is 11.3 µM.

In the case of `COc1cc(C2c3sc(=O)[nH]c3SC3C(=O)N(c4ccc(C)cc4)C(=O)C32)ccc1O` (stereo not given), the IC50 is > 12 µM (inactive).

Take `COc1cc(/C=C/C(O)=C/C(=O)/C=C/c2ccc(O)cc2)ccc1O`: the half-maximal inhibitory concentration (IC50) was 1.75 µM.

Take `O=C1C(c2ccncc2)=C(O)c2ccccc21`: the half-inhibitory concentration (IC50) is 10.3 µM.

As for `COc1cc(/C=C/C(=O)/C=C(O)/C=C/c2ccc(O)c(OC)c2)ccc1O`, the IC50 is 0.71 µM.
